In patent US20160009686A1, “VEGFR3 INHIBITORS” (CANCER THERAPEUTICS CRC PTY LIMITED, priority 2012, published 2016):

Experiments:
VEGFR2 = target: T1, VEGFR2 (Homo sapiens, UniProt P35968); experiment: VEGFR2 Phospho ELISA Assay; type: cell-based; conditions: HUVEC, treated for 1 hour, VEGF stimulated; phospho VEGFR2 relative to Total VEGFR2
T1 construct: host or cells: HUVEC
Method: Adult human umbilical vein endothelial cells (HUVEC) (Cat# CC-2519, Lonza) were seeded into clear-bottom, TC treated 12 well plates (Cat #665180, Greiner Bio-One) in EGM-2 (Cat# CC-3162, Lonza) at 180,000 cells/well (volume 1 mL), and the plates incubated at 37° C. and 5% CO2 for 6 hours.
96 well Maxisorp immuno plates (Cat #439454, Nunc) were coated with 100 μL of Total VEGFR2 capture antibody (Part #841434, Human Total VEGFR2/FLT4 ELISA Kit, Cat # DYC1780, R&D Systems), or Phospho VEGFR2 Capture antibody (Part #841419, Human Phospho VEGFR2/FLT4 ELISA Kit, Cat# DYC1766, R&D Systems). The plates were covered and incubated at room temperature overnight.
The coating antibody was flicked out and the plates washed three times with Wash Buffer (Phosphate buffered saline (137 mM NaCl, 2.7 nM KCl, 8.1 nM Na2HPO4, 1.5 mL KH2PO4, pH 7.2-7.4), 0.05% Tween 20). 300 μL of Blocking buffer (1% v/v BSA (Cat# A8412, Sigma) in PBS) was then added to wells and plate incubated for 2 hours at room temperature. Blocking solution is flicked out and plates washed three times and tapped dry.
Compound dilution series were prepared in EBM-2 (Cat # CC-3156, Lonza)+0.1% BSA (Cat# A8412, Sigma) with constant 0.1% DMSO concentration. 427.5 μL of sample or vehicle control was added to the cell monolayers. Cells are treated for 1 hour at 37° C. and 5% CO2. 50 ng/mL Recombinant human VEGF (Cat #293-VC, R & D Systems) added to wells and plates incubated for an additional 10 minutes at 37° C. and 5% CO2.
(§1) The media and compounds were removed and the cell monolayer washed once in Dulbecco's Phosphate Buffered Saline (Cat #21600-044, Invitrogen). 130 μL of Lysis buffer added to wells and cell lysate harvested and transferred to tubes and stored on ice. Complete lysis buffer was prepared by adding 10 μL Protease Inhibitor Cocktail (Cat # P8340, Sigma-Aldrich), 10 μL PMSF (Phenylmethanesulfonyl fluoride, Cat # P7626, Sigma-Aldrich, prepared as 500 mM DMSO stock) per 1 mL of Phosphosafe™ Extraction Reagent (Cat #71296, Merck).
The plates were then washed three times in wash buffer as described above and tapped dry.
For detection of Total VEGFR2 100 μL of Detection antibody (Total VEGFR2 Detection Antibody Part#841435 in Total VEGFR2 kit) diluted in IC Diluent #14 (20 mM Tris, 137 mM CaCl2, 0.05% Tween20, 0.1% BSA) was added to wells and the plate incubated for 2 hours at room temperature. The plate was then washed three times in wash buffer and tapped dry. 100 μL of streptavidin-HPR diluted in IC diluent #14 Streptavidin-HRP, Part #890803 in Total VEGFR2 kit) was added to wells and incubated at room temperature for 20 minutes followed by washing as described above. 100 μL Substrate solution (3,3′,5,5′-Tetramethylbenzidine (TMB) Liquid Substrate System for ELISA, Cat # T0440, Sigma-Aldrich) was added and the plate incubated for 20 minutes in the dark at room temperature followed by the addition of 50 μL stop solution (2 M H2SO4).
Total VEGFR2 levels were quantified using a Multiskan Ascent plate reader and Ascent software fitted with 450 nm filter.
For detection of Phospho VEGFR2, 100 μL of Detection antibody (Anti-Phospho-Tyrosine-HRP Detection Antibody, Part #841403 in Phospho VEGFR2 kit) was diluted in IC Diluent 14 (20 mM Tris, 137 mM CaCl2, 0.05% Tween20, 0.1% BSA), was added to the wells and the plate incubated for 2 hours at room temperature. The plate was then washed three times in wash buffer as described above and tapped dry. 100 μL Substrate solution (3,3′,5,5′-Tetramethylbenzidine (TMB) Liquid Substrate System for ELISA, Cat # T0440, Sigma-Aldrich) was added and the plate incubated for 20 minutes in the dark at room temperature followed by the addition of 50 μL stop solution (2 M H2SO4).
Phospho VEGFR2 levels were quantified using a Multiscan ascent plate reader and ascent software fitted with 450 nm filter.
IC50 values are determined by first calculating the level of phospho VEGFR2 relative to Total VEGFR2 according to the following formula:

[1] = target: VEGFR3 cytoplasmic domain (Homo sapiens, UniProt P35916); experiment: VEGFR3 Biochemical Assay (AlphaScreen); conditions: GST-fusion enzyme, 500 μM ATP, 90 minutes at 30 degree Celsius (modified form in some cases: Hexa-His-fusion enzyme, 1 μM ATP); read-out: IC50
VEGFR3 = VEGFR3 (Homo sapiens, UniProt P35916); experiment: VEGFR3 Phospho ELISA Assay; type: cell-based; conditions: HMVEC-dLyAD cells, treated for 1 hour, VEGFC stimulated; phospho VEGFR3 relative to Total VEGFR3
Sequence of VEGFR3 (P35916 25-1363): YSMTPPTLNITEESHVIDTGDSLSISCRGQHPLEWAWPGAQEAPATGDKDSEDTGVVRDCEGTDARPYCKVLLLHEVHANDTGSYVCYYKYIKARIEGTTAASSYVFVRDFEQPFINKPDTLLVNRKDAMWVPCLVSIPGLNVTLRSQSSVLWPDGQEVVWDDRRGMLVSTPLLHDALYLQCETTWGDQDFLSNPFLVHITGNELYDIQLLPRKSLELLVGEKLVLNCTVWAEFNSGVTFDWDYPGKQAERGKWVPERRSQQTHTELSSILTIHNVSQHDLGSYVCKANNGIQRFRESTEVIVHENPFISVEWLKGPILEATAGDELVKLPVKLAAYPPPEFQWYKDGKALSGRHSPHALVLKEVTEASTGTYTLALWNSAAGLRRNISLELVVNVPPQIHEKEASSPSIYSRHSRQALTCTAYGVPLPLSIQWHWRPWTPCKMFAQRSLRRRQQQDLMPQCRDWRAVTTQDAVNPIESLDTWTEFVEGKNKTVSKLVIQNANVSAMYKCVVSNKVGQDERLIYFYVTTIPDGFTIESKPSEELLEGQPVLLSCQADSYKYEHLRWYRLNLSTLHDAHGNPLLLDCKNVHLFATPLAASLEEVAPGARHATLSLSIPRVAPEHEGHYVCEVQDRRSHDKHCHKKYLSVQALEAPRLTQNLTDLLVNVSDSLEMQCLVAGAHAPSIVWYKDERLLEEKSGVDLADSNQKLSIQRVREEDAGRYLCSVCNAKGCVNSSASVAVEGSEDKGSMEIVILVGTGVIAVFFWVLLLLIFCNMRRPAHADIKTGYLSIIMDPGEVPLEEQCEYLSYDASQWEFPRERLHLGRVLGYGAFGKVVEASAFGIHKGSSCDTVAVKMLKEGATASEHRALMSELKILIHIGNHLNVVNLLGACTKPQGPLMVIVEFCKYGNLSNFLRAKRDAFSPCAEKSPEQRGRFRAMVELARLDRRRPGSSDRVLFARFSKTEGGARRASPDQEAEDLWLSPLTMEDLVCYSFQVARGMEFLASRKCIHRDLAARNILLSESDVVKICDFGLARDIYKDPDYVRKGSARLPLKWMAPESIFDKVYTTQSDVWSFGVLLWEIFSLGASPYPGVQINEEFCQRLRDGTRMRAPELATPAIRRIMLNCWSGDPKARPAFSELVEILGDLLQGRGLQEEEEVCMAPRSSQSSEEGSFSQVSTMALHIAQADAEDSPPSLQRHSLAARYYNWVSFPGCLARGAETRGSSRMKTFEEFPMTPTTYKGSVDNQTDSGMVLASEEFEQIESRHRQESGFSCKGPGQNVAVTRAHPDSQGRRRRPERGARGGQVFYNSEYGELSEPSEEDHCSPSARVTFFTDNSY
Method: Adult human dermal lymphatic microvascular endothelial cells (HMVEC-dLyAD) (Cat# CC-2810, Lonza) were seeded into clear-bottom, TC treated 12 well plates (Cat #665180, Greiner Bio-One) in EGM-2MV (Cat# CC-3202, Lonza) at 180,000 cells/well (volume 1 mL), and the plates incubated at 37° C. and 5% CO2 for 6 hours.
96 well Maxisorp immuno plates (Cat #439454, Nunc) were coated with 100 μL of Total VEGFR3 capture antibody (Part #841888, Human Total VEGFR3/FLT4 ELISA Kit, Cat # DYC3491, R&D Systems), or Phospho VEGFR3 Capture antibody (Part #841885, Human Phospho VEGFR3/FLT4 ELISA Kit, Cat# DYC2724, R&D Systems). The plates were covered and incubated at room temperature overnight.
The coating antibody was flicked out and the plates washed three times with Wash Buffer (Phosphate buffered saline (137 mM NaCl, 2.7 nM KCl, 8.1 nM Na2HPO4, 1.5 mL KH2PO4, pH 7.2-7.4), 0.05% Tween 20). 300 μL of blocking buffer (5% v/v Tween 20, 5% w/v sucrose in PBS) was then added to wells and plate incubated for 2 hours at room temperature. Blocking solution is flicked out and plates washed three times and tapped dry.
Compound dilution series were prepared in EBM-2 (Cat # CC-3156, Lonza)+0.1% BSA (Cat# A8412, Sigma) with constant 0.1% DMSO concentration. 439 μL of sample or vehicle control was added to the cell monolayers. Cells are treated for 1 hour at 37° C. and 5% CO2. 250 ng/mL Recombinant human VEGFC (Cat #2179-VC, R & D Systems) added to wells and plates incubated for an additional 10 minutes at 37° C. and 5% CO2.
as §1
The harvested samples were then diluted 1:2 in IC Diluent #18 (5% Tween 20/PBS) and 100 μL transferred to the Total and Phospho VEGFR3 coated, blocked and washed 96 well plates and incubated for 2 hours at room temperature. The plates were then washed three times in wash buffer as described above and tapped dry. For detection of Total VEGFR3 100 μL of Detection antibody (Total VEGFR3 Detection Antibody Part#841888 in Total VEGFR3 kit) diluted in IC Diluent #1 (1% w/v BSA (Cat # A7906, Sigma-Aldrich)/PBS) was added to wells and the plate incubated for 2 hours at room temperature. The plate was then washed three times in wash buffer and tapped dry. 100 μL of streptavidin-HPR diluted in IC diluent #1 Streptavidin-HRP, Part #890803 in Total VEGFR3 kit) was added to wells and incubated at room temperature for 20 minutes followed by washing as described above. 100 μL Substrate solution (3,3′,5,5′-Tetramethylbenzidine (TMB) Liquid Substrate System for ELISA, Cat # T0440, Sigma-Aldrich) was added and the plate incubated for 20 minutes in the dark at room temperature followed by the addition of 50 μL stop solution (2 M H2SO4).
Total VEGFR3 levels were quantified using a Multiskan Ascent plate reader and Ascent software fitted with 450 nm filter.
For detection of Phospho VEGFR3, 100 μL of Detection antibody (Anti-Phospho-Tyrosine-HRP Detection Antibody, Part #841403 in Phospho VEGFR3 kit) was diluted in IC Diluent #1 (1% w/v BSA/PBS), added to the wells and the plate incubated for 2 hours at room temperature. The plate was then washed three times in wash buffer as described above and tapped dry. 100 μL Substrate solution (3,3′,5,5′-Tetramethylbenzidine (TMB) Liquid Substrate System for ELISA, Cat # T0440, Sigma-Aldrich) was added and the plate incubated for 20 minutes in the dark at room temperature followed by the addition of 50 μL stop solution (2 M H2SO4).

Sequence of VEGFR3 cytoplasmic domain (P35916 798-1298 isoform P35916-1): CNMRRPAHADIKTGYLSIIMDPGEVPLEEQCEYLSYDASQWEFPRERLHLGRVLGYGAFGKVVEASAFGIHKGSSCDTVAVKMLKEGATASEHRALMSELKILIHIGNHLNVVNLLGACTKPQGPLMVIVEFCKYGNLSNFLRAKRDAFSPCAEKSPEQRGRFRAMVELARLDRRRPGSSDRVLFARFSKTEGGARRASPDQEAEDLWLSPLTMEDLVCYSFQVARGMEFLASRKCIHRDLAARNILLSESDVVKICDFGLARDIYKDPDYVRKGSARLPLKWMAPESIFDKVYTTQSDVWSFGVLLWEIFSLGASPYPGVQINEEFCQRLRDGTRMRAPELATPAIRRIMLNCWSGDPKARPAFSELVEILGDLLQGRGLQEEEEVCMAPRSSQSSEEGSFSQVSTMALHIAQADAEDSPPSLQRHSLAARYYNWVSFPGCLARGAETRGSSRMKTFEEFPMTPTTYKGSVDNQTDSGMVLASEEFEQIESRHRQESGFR
T1 sequence (P35968 20-1356): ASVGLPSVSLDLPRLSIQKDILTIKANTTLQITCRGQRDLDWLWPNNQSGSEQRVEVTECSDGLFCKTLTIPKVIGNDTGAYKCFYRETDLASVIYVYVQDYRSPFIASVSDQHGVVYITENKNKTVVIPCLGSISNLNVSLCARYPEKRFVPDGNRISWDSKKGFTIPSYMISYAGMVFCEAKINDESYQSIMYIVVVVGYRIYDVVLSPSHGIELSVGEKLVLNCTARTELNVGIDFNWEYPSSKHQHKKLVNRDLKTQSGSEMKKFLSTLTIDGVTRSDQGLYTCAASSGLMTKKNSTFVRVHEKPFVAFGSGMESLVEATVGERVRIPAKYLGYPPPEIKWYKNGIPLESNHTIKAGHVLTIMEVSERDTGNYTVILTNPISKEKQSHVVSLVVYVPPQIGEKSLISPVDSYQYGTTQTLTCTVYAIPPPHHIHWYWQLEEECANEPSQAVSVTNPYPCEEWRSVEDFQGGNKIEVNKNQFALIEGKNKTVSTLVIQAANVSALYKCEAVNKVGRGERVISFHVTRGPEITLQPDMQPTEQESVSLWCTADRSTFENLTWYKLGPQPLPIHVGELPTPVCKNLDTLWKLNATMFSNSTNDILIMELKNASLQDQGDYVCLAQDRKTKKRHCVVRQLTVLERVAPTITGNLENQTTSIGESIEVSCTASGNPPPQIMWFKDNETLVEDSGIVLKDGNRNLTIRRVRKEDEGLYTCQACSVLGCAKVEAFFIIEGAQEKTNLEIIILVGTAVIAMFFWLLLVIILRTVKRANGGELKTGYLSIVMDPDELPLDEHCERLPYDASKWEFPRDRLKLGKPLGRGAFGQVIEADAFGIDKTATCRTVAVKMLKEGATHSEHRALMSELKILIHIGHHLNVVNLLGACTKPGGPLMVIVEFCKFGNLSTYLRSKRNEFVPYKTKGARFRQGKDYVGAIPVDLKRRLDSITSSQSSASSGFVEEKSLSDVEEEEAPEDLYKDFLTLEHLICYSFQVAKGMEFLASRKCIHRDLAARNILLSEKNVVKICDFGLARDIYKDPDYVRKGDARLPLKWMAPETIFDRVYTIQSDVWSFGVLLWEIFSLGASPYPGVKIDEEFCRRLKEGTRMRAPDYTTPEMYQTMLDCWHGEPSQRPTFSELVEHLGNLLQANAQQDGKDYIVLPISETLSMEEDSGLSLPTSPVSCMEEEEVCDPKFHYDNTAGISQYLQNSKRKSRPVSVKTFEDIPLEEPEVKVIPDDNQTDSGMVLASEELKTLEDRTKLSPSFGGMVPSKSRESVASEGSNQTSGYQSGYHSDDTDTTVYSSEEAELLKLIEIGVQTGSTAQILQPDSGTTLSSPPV

SMILES | IC50 (VEGFR2) [nM] | IC50 [1] [nM] | IC50 (VEGFR3) [nM]
CN1CCC(n2cc(Nc3ncc(Cl)c(CCc4ccccc4C4(C(N)=O)CC4)n3)cn2)C1 (stereo not shown) [Compound 21, 1-(2-(2-(5-Chloro-2-(1-(1-methylpyrrolidin-3-yl)-1H-pyrazol-4-ylamino)pyrimidin-4-yl)ethyl)phenyl)cyclopropanecarboxamide] | 73 | 7 | 14
NC(=O)C1(c2ccccc2CCc2nc(Nc3cnn(C4CCNCC4)c3)ncc2Cl)CC1 [Compound 17, 1-(2-(2-(5-Chloro-2-((1-(piperidin-4-yl)-1H-pyrazol-4-yl)amino)pyrimidin-4-yl)ethyl)phenyl)cyclopropanecarboxamide] | 393 | 9 | 62
NC(=O)C1(c2ccccc2CCc2nc(Nc3cn[nH]c3)ncc2Cl)CC1 [Compound 19, 1-(2-(2-(2-(1H-Pyrazol-4-ylamino)-5-chloropyrimidin-4-yl)ethyl)phenyl)cyclopropanecarboxamide] | 248 | 3 | 11
CC(C(N)=O)c1ccccc1CCc1nc(Nc2cnn(C)c2)ncc1Cl (stereo not shown) [Compound 36, 2-(2-(2-(5-Chloro-2-(1-methyl-1H-pyrazol-4-ylamino)pyrimidin-4-yl)ethyl)phenyl) propanamide] | 8170 | 16 | 76
CN1CCC(n2cc(Nc3ncc(Cl)c(CCc4ccccc4C4(C(N)=O)CC4)n3)cn2)CC1 [Compound 18, 1-(2-(2-(5-chloro-2-((1-(1-methylpiperidin-4-yl)-1H-pyrazol-4-yl)amino)pyrimidin-4-yl)ethyl)phenyl)cyclopropanecarboxamide] | 21 | 3 | 5
CN1CCC(c2ccc(Nc3ncc(C(F)(F)F)c(CCc4ccccc4C4(C(N)=O)CC4)n3)cc2)CC1 [Compound 3, 1-(2-(2-(2-((4-(1-methylpiperidin-4-yl)phenyl)amino)-5-(trifluoromethyl)pyrimidin-4-yl)ethyl)phenyl)cyclopropanecarboxamide] | 1790 | 9 | 27
NC(=O)C1(c2ccccc2CCc2nc(Nc3ccc(C4CCNCC4)nc3)ncc2Cl)CC1 [Compound 15, 1-(2-(2-(5-Chloro-2-((6-(piperidin-4-yl)pyridin-3-yl)amino)pyrimidin-4-yl)ethyl)phenyl)cyclopropanecarboxamide] | 2000 | 11 | 51
Cc1cnc(Nc2cnn(C)c2)nc1CCc1ccccc1C(C)C(N)=O (stereo not shown) [Compound 51, 2-(2-(2-(5-Methyl-2-((1-methyl-1H-pyrazol-4-yl)amino)pyrimidin-4-yl)ethyl)phenyl)propanamide] | – | 15 | 526
NC(=O)C1(c2ccccc2CCc2nc(Nc3cccnc3)ncc2Cl)CC1 [Compound 6, 1-(2-(2-(5-chloro-2-(pyridin-3-ylamino)pyrimidin-4-yl)ethyl)phenyl)cyclopropanecarboxamide] | 6610 | 8 | 17
NC(=O)C1(c2ccccc2CCc2nc(Nc3ccc(C4CCNCC4)nc3)ncc2C(F)(F)F)CC1 [Compound 5, 1-(2-(2-(2-((6-(Piperidin-4-yl)pyridin-3-yl)amino)-5-(trifluoromethyl)pyrimidin-4-yl)ethyl)phenyl)cyclopropanecarboxamide] | 4080 | 28 | 51
CC(C(N)=O)c1ccccc1CCc1nc(Nc2cnn(C3CCN(C)CC3)c2)ncc1Cl (stereo not shown) [Compound 44, 2-(2-(2-(5-Chloro-2-(1-(1-methylpiperidin-4-yl)-1H-pyrazol-4-ylamino)pyrimidin-4-yl)ethyl)phenyl)propanamide] | 138 | 9 | 52
CCC(C(N)=O)c1ccccc1CCc1nc(Nc2ccc(C3CCNCC3)cc2)ncc1C(F)(F)F (single isomer, unassigned) [Compound 1-2A, 2-(2-(2-(2-((4-(Piperidin-4-yl)phenyl)amino)-5-(trifluoromethyl)pyrimidin-4-yl)ethyl)phenyl)butanamide] | – | 75 | 315
CC(C(N)=O)c1ccccc1CCc1nc(Nc2cn[nH]c2)ncc1Cl (stereo not shown) [Compound 35, 2-(2-(2-(2-(1H-Pyrazol-4-ylamino)-5-chloropyrimidin-4-yl)ethyl)phenyl)propanamide] | 3790 | 9 | 64
NC(=O)C1(c2ccccc2CCc2nc(Nc3cnn(C4CCNC4)c3)ncc2Cl)CC1 (stereo not shown) [Compound 20, 1-(2-(2-(5-Chloro-2-(1-(pyrrolidin-3-yl)-1H-pyrazol-4-ylamino)pyrimidin-4-yl)ethyl)phenyl)cyclopropanecarboxamide] | 1760 | 7 | 38
Cn1cc(Nc2ncc(Cl)c(CCc3ccccc3C3(C(N)=O)CC3)n2)cn1 [Compound 13, 1-(2-(2-(5-Chloro-2-((1-methyl-1H-pyrazol-4-yl)amino)pyrimidin-4-yl)ethyl)phenyl)cyclopropanecarboxamide] | – | 4 | 9
CN1CCC(c2ccc(Nc3ncc(Cl)c(CCc4ccccc4C4(C(N)=O)CC4)n3)cc2)CC1 [Compound 8, 1-(2-(2-(5-chloro-2-((4-(1-methylpiperidin-4-yl)phenyl)amino)pyrimidin-4-yl)ethyl)phenyl)cyclopropanecarboxamide] | 897 | 10 | 19
CCC(C(N)=O)c1ccccc1CCc1nc(Nc2ccc(C3CCNCC3)cc2)ncc1C(F)(F)F (single isomer, unassigned) [Compound 1-1A, 2-(2-(2-(2-((4-(Piperidin-4-yl)phenyl)amino)-5-(trifluoromethyl)pyrimidin-4-yl)ethyl)phenyl)butanamide] | – | 103 | 329
NC(=O)C1(c2ccccc2CCc2nc(Nc3ccc(C4CCNCC4)nc3)ncc2C(F)(F)F)CC1 [Compound 68, 1-(2-(2-(2-((6-(Piperidin-4-yl)pyridin-3-yl)amino)-5-(trifluoromethyl)pyrimidin-4-yl)ethyl)phenyl)cyclopropanecarboxamide] | 4080 | 28 | 51
NC(=O)C1(c2ccccc2CCc2nc(Nc3ccc(C4CCNCC4)cc3)ncc2Cl)CC1 [Compound 7, 1-(2-(2-(5-chloro-2-((4-(piperidin-4-yl)phenyl)amino)pyrimidin-4-yl)ethyl)phenyl)cyclopropanecarboxamide] | – | 10 | 38
COc1ccc(Nc2ncc(C(F)(F)F)c(CCc3ccccc3C3(C(N)=O)CC3)n2)cn1 [Compound 64, 1-(2-(2-(2-((6-Methoxypyridin-3-yl)amino)-5-(trifluoromethyl)pyrimidin-4-yl)ethyl)phenyl)cyclopropanecarboxamide] | – | 8 | 394
CC(C(N)=O)c1ccccc1CCc1nc(Nc2cnn(C3CCN(C)CC3)c2)ncc1C(F)(F)F (single isomer, unassigned) [Compound 57-1A, 2-(2-(2-(2-((1-(1-Methylpiperidin-4-yl)-1H-pyrazol-4-yl)amino)-5-(trifluoromethyl)pyrimidin-4-yl)ethyl)phenyl)propanamide] | 518 | – | –
NC(=O)C1(c2ccccc2CCc2nc(Nc3ccc(C(F)(F)F)nc3)ncc2Cl)CC1 [Compound 9, 1-(2-(2-(5-chloro-2-((6-(trifluoromethyl)pyridin-3-yl)amino)pyrimidin-4-yl)ethyl)phenyl)cyclopropanecarboxamide] | […] | 26 | 75
NC(=O)C1(c2ccccc2CCc2nc(Nc3ccc(C4CCNCC4)cc3)ncc2C(F)(F)F)CC1 [Compound 2, 1-(2-(2-(2-((4-(Piperidin-4-yl)phenyl)amino)-5-(trifluoromethyl)pyrimidin-4-yl)ethyl)phenyl)cyclopropanecarboxamide] | 283 | 10 | 26
CC(NC(=O)OC(C)(C)C)c1ccc(Nc2ncc(Cl)c(CCc3ccccc3C3(C(N)=O)CC3)n2)cc1 (stereo not shown) [Compound 24, tert-Butyl (1-(4-((4-(2-(1-carbamoylcyclopropyl)phenethyl)-5-chloropyrimidin-2-yl)amino)phenyl)ethyl)carbamate] | – | 2 | 25
NC(=O)C1(c2ccccc2CCc2nc(Nc3ccnnc3)ncc2Cl)CC1 [Compound 22, 1-(2-(2-(5-Chloro-2-(pyridazin-4-ylamino)pyrimidin-4-yl)ethyl)phenyl)cyclopropanecarboxamide] | – | 20 | –
CC(C(N)=O)c1ccccc1CCc1nc(Nc2cncnc2)ncc1Cl (stereo not shown) [Compound 40, 2-(2-(2-(5-Chloro-2-(pyrimidin-5-ylamino)pyrimidin-4-yl)ethyl)phenyl) propanamide] | – | 160 | –
NC(=O)C1(c2ccccc2CCc2nc(Nc3ccc(C4CCNCC4)cc3)ncc2C(F)(F)F)CCC1 [Compound 52, 1-(2-(2-(2-((4-(Piperidin-4-yl)phenyl)amino)-5-(trifluoromethyl)pyrimidin-4-yl)ethyl)phenyl)cyclobutanecarboxamide] | – | 23 | –
CC(C(N)=O)c1ccccc1CCc1nc(Nc2cn[nH]c2)ncc1C(F)(F)F (stereo not shown) [Compound 54, 2-(2-(2-(2-((1H-Pyrazol-4-yl)amino)-5-(trifluoromethyl)pyrimidin-4-yl)ethyl)phenyl)propanamide] | – | 17 | –
CC(N)c1ccc(Nc2ncc(Cl)c(CCc3ccccc3C3(C(N)=O)CC3)n2)cc1 (stereo not shown) [Compound 24A, 1-(2-(2-(2-((4-(1-Aminoethyl)phenyl)amino)-5-chloropyrimidin-4-yl)ethyl)phenyl)cyclopropanecarboxamide] | 209 | 14 | –
Cc1cc(Nc2ncc(Cl)c(CCc3ccccc3C3(C(N)=O)CC3)n2)n[nH]1 [Compound 27, 1-(2-(2-(5-Chloro-2-((5-methyl-1H-pyrazol-3-yl)amino)pyrimidin-4-yl)ethyl)phenyl)cyclopropanecarboxamide] | – | 47 | –
